In ChEMBL document CHEMBL4665787, “Bifunctional and Unusual Amino Acid β- or γ-Ester Prodrugs of Nucleoside Analogues for Improved Affinity to ATB and Enhanced Metabolic Stability: An Application to Floxuridine” (J Med Chem, 2020):
Calls of active or inactive are those of the source. The rule behind the calls is not given here.

Key:
[1] = Half life of compound in human MIA PaCa-2 cell homogenate; assay type: ADME, tissue-based
[2] = Half life of compound in PBS buffer at pH 7.4 at 200 uM by HPLC analysis; assay type: physicochemical
ZR-75-1 [3] = test: Potency index, ratio of FUdR GI50 to test compound GI50 for growth inhibition of human ZR-75-1 cells; assay type: functional
[4] = Half life of compound in human ZR-75-1 cell homogenate; assay type: ADME, tissue-based
[5] = Cmax in NOD SCID nude mouse tumour xenografted with ZR-75-1 cells assessed as floxuridine; 5-fluoro-2-deoxyuridine concentration at 90 mg/kg, iv measured up to 24 hrs by HPLC-MS/MS analysis; assay type: ADME, organism-based, Neoplasm; design: route intravenous, dose 90 mg/kg, time <=24; conditions: in vivo
MDA-MB-231 [6] = test: Antitumour activity against human MDA-MB-231 cells xenografted in NOD SCID nude mouse assessed as tumour inhibition at 90 mg/kg, iv administered for 20 days measured every 2 day by caliper method relative to control; assay type: functional; conditions: MDA-MB-231, iv, 480 h, time 20 day
[7] = Selectivity ratio of substrate activity at SLC6A14 (unknown origin) expressed in Xenopus laevis oocytes assessed as ABT0+ mediated drug uptake to drug uptake in Xenopus laevis oocytes; design: species or system Oocyte
[8] = target: T1, Sodium- and chloride-dependent neutral and basic amino acid transporter B(0+) (Homo sapiens, UniProt Q9UN76); test: Substrate activity at SLC6A14 (unknown origin) expressed in Xenopus laevis oocytes assessed as inhibition of glycine uptake incubated for 10 mins by HPLC/MS/MS analysis; assay type: cell-based, Oocyte
T1 sequence (Q9UN76 whole entry): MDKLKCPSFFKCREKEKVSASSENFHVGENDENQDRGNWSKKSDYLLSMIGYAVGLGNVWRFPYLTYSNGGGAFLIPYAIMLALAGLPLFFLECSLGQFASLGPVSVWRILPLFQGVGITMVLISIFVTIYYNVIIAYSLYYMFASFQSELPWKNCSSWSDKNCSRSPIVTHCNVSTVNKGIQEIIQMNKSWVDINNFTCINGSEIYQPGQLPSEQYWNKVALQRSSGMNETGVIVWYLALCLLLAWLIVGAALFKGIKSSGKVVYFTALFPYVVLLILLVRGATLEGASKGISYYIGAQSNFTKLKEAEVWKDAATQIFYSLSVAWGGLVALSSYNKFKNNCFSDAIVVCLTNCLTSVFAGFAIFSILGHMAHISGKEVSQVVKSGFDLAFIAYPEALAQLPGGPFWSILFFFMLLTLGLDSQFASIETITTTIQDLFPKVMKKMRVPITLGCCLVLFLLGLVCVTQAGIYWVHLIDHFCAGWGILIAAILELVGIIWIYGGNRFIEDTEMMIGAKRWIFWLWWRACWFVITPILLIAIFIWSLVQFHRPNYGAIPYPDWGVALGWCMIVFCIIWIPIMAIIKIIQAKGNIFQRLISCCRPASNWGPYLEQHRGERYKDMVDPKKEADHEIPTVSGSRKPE

[9] = Half life in rat plasma at 200 uM measured up to 120 mins by HPLC-MS/MS analysis; assay type: ADME, cell-free
[10] = Drug uptake in Xenopus laevis oocytes at 0.5 mM incubated for 10 mins by HPLC analysis; assay type: ADME, cell-based; conditions: oocyte, 500 µM
[11] = AUC (0 to t) in NOD SCID nude mouse plasma xenografted with ZR-75-1 cells assessed as fluorouracil AUC at 90 mg/kg, iv measured up to 24 hrs by HPLC-MS/MS analysis; assay type: ADME, organism-based; design: route intravenous, dose 90 mg/kg, time <=24; conditions: in vivo
thymidine phosphorylase = test: Half life of compound in thymidine phosphorylase buffer at 300 uM by HPLC analysis; assay type: physicochemical
[12] = Ratio of AUC (0 to t) in NOD SCID nude mouse plasma xenografted with ZR-75-1 cells to AUC (0 to t) in NOD SCID mouse tumour xenografted with ZR-75-1 cells; assay type: ADME, cell-free, Tumor/Plasma
MDA-MB-231 [13] = test: Potency index, ratio of FUdR GI50 to test compound GI50 for growth inhibition of human MDA-MB-231 cells; assay type: functional
[14] = Cmax in NOD SCID nude mouse plasma xenografted with ZR-75-1 cells assessed as fluorouracil at 90 mg/kg, iv measured up to 24 hrs by HPLC-MS/MS analysis; assay type: ADME, organism-based; design: route intravenous, dose 90 mg/kg, time <=24; conditions: in vivo
[15] = Toxicity in NOD SCID nude mouse xenografted with human MDA-MB-231 cells assessed as body weight at 90 mg/kg, iv for 20 days (reference value: 30.1 +/- 4.1g); assay type: organism-based; conditions: in vivo, 480 h, time 20 day
[16] = target: T2, Sodium- and chloride-dependent neutral and basic amino acid transporter B(0+) (Homo sapiens) (UniProt Q9UN76); test: Substrate activity at SLC6A14 (unknown origin) expressed in Xenopus laevis oocytes assessed as increase in ABT0+ mediated drug uptake at 1 mM in presence of Cl- ion by HPLC analysis; assay type: cell-based; conditions: Oocyte
T2 sequence (whole entry): T1 sequence (Q9UN76 whole entry)

ZR-75-1 [17] = test: Antitumour activity against human ZR-75-1 cells xenografted in NOD SCID nude mouse assessed as tumour inhibition at 90 mg/kg, iv administered for 20 days measured every 2 day by caliper method relative to control; assay type: functional; conditions: ZR-75-1, iv, 480 h, time 20 day
[18] = target: T3, Solute carrier family 15 member 1 (Homo sapiens, UniProt P46059); test: Substrate activity at PEPT1 (unknown origin) expressed in MDCK cells assessed as inhibition of gly-sar uptake incubated for 10 mins by HPLC/MS/MS analysis; assay type: cell-based
T3 sequence (P46059 whole entry): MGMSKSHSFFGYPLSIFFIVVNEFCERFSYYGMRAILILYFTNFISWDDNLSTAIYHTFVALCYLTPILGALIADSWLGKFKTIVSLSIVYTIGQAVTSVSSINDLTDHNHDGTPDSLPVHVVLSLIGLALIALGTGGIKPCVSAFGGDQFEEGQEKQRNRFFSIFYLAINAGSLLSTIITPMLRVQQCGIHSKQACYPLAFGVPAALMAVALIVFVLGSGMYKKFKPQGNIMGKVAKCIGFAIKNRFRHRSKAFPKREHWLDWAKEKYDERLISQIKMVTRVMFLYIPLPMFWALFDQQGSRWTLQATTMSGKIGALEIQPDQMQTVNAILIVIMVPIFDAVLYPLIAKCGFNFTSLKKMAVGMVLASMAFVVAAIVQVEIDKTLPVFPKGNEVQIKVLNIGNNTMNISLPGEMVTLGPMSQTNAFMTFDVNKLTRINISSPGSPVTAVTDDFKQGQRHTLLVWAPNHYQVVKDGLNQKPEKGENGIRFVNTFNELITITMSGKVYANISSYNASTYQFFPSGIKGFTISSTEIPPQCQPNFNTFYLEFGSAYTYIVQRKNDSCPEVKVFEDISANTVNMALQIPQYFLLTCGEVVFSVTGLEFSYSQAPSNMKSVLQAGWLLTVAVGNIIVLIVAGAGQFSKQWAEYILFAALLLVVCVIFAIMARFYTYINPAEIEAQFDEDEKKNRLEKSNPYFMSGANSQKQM

[19] = AUC (0 to t) in NOD SCID nude mouse plasma xenografted with ZR-75-1 cells assessed as floxuridine; 5-fluoro-2-deoxyuridine AUC at 90 mg/kg, iv measured up to 24 hrs by HPLC-MS/MS analysis; assay type: ADME, organism-based; design: route intravenous, dose 90 mg/kg, time <=24; conditions: in vivo

Compound: N[C@@H](CC(=O)OC[C@H]1O[C@@H](n2cc(F)c(=O)[nH]c2=O)C[C@@H]1O)C(=O)O
- half-life [1]: 0.273 h
- half-life at 200 µM [2]: 4.77 h
- RatioGI50 (ZR-75-1 [3]): 7
- half-life [4]: 0.223 h
- Cmax [5]: 700.2 ng/g
- inhibition in vivo at 90 mg/kg (MDA-MB-231 [6]): 33.8%
- Ratio [7]: 9.28
- IC50 [8]: 0.82 mM
- half-life at 200 µM [9]: 2.49 h
- Drug uptake [10]: 0.32 nmol/mg/min
- AUCt [11]: 588.2 ng·h/mL
- half-life at 300 µM (thymidine phosphorylase): 4.98 h
- Ratio [12]: 3.9
- RatioGI50 (MDA-MB-231 [13]): 7
- Cmax [14]: 67.8 ng/mL
- Activity [15]: 27.6 g
- Activity [16]: Active
- inhibition in vivo at 90 mg/kg (ZR-75-1 [17]): 58.6%
- IC50 [18]: 10.2 mM
- AUC [19]: 1172.9 ng·h/mL
